Laboratory results reported in patent publication EP0908457B1, “3-(1,2-benzisothiazol- and isoxazol-5-Y1)-2,4(1H,3H)-pyrimidinedione or thione and 3-(1,2-benzisothiazol- and isoxazol-5-y1)-4(3H)-pyrimidinone or thione herbicidal agents” (BASF AKTIENGESELLSCHAFT, priority 1997, dated 1999).

Columns and labels:
[1] = tested on: Echinochloa oryzoides (Ard.) Fritsch.; test: Preemergence weed control under flooded paddy conditions, ECHORC (Watergrass (Calif.)); format: in vivo; details: preemergence, flooded paddy, rated three to four weeks after treatment; further: meaning of each grade not given here
Cyperus iria [2] = test: Preemergence weed control under flooded paddy conditions, CYPIR (Rice Flatsedge); format: in vivo; details: preemergence, flooded paddy, rated three to four weeks after treatment; further: meaning of each grade not given here
[3] = tested on: Cyperus serotinus, Rottb.; test: Preemergence weed control under flooded paddy conditions, CYPSE (Flatsedge); format: in vivo; details: preemergence, rated three to four weeks after treatment; further: meaning of each grade not given here
[4] = tested on: Monochoria vaginalis, Presl.; test: Preemergence weed control under flooded paddy conditions, MOOVA (Monochoria); format: in vivo; details: preemergence, flooded paddy, rated three to four weeks after treatment; further: meaning of each grade not given here
Sagittaria pygmaea, L. [5] = test: Preemergence weed control under flooded paddy conditions, SAGPY (Arrowhead (Pygmaea)); format: in vivo; details: preemergence, flooded paddy, rated three to four weeks after treatment; further: meaning of each grade not given here
[6] = tested on: Echinochloa oryzoides (Ard.) Fritsch.; test: Postemergence weed control under flooded paddy conditions, ECHORC (Watergrass (Calif.)); format: in vivo; details: rated three to four weeks after treatment
Cyperus iria [7] = test: Postemergence weed control under flooded paddy conditions, CYPIR (Rice Flatsedge); format: in vivo; details: rated three to four weeks after treatment
[8] = tested on: Cyperus serotinus, Rottb.; test: Postemergence weed control under flooded paddy conditions, CYPSE (Flatsedge); format: in vivo; details: rated three to four weeks after treatment
[9] = tested on: Monochoria vaginalis, Presl.; test: Postemergence weed control under flooded paddy conditions, MOOVA (Monochoria); format: in vivo; details: rated three to four weeks after treatment
Sagittaria pygmaea, L. [10] = test: Postemergence weed control under flooded paddy conditions, SAGPY (Arrowhead (Pygmaea)); format: in vivo; details: rated three to four weeks after treatment
[11] = tested on: Oryza sativa, (L.) Tebonnet; test: Rice tolerance to post-transplant applications under flooded paddy conditions (Example 187), ORYSAT (Rice, Tebonnet); details: rated three to four weeks after treatment; further: meaning of each grade not given here
[12] = tested on: Oryza sativa, (L.) Tebonnet; test: Rice tolerance to post-transplant applications under flooded paddy conditions (Example 188), ORYSAT (Rice, Tebonnet); details: rated three to four weeks after treatment

## COC(=O)COc1ccc(C)cc1-c1noc2cc(F)c(-n3c(=O)cc(C(F)(F)F)n(C)c3=O)cc12 [Example 359, Acetic acid, {{2-{5-[3,6-dihydro-3-methyl-2,6-dioxo-4-(trifluoromethyl)-1(2H)-pyrimidinyl]-6-fluoro-1,2-benzisoxazol-3-yl}-p-tolyl}oxy}-, methyl ester]
[1]; Rate 0.0320 kg/ha
  herbicidal effect rating, ECHORC: 8.5
[1]; Rate 0.0620 kg/ha
  herbicidal effect rating, ECHORC: 9.0
[1]; Rate 0.1250 kg/ha
  herbicidal effect rating, ECHORC: 9.0
[1]; Rate 0.2500 kg/ha
  herbicidal effect rating, ECHORC: 9.0
[1]; Rate 0.5000 kg/ha
  herbicidal effect rating, ECHORC: 9.0
Cyperus iria [2]; Rate 0.0320 kg/ha
  herbicidal effect rating, CYPIR: 6.3
Cyperus iria [2]; Rate 0.0620 kg/ha
  herbicidal effect rating, CYPIR: 7.5
Cyperus iria [2]; Rate 0.1250 kg/ha
  herbicidal effect rating, CYPIR: 8.5
Cyperus iria [2]; Rate 0.2500 kg/ha
  herbicidal effect rating, CYPIR: 9.0
Cyperus iria [2]; Rate 0.5000 kg/ha
  herbicidal effect rating, CYPIR: 9.0
[3]; Rate 0.0320 kg/ha
  herbicidal effect rating, CYPSE: 9.0
[3]; Rate 0.0620 kg/ha
  herbicidal effect rating, CYPSE: 6.0
[3]; Rate 0.1250 kg/ha
  herbicidal effect rating, CYPSE: 9.0
[3]; Rate 0.2500 kg/ha
  herbicidal effect rating, CYPSE: 9.0
[4]; Rate 0.0320 kg/ha
  herbicidal effect rating, MOOVA: 8.8
[4]; Rate 0.0620 kg/ha
  herbicidal effect rating, MOOVA: 9.0
[4]; Rate 0.1250 kg/ha
  herbicidal effect rating, MOOVA: 9.0
[4]; Rate 0.2500 kg/ha
  herbicidal effect rating, MOOVA: 9.0
[4]; Rate 0.5000 kg/ha
  herbicidal effect rating, MOOVA: 9.0
Sagittaria pygmaea, L. [5]; Rate 0.0320 kg/ha
  herbicidal effect rating, SAGPY: 0.0
Sagittaria pygmaea, L. [5]; Rate 0.0620 kg/ha
  herbicidal effect rating, SAGPY: 0.5
Sagittaria pygmaea, L. [5]; Rate 0.1250 kg/ha
  herbicidal effect rating, SAGPY: 1.8
Sagittaria pygmaea, L. [5]; Rate 0.2500 kg/ha
  herbicidal effect rating, SAGPY: 4.5
Sagittaria pygmaea, L. [5]; Rate 0.5000 kg/ha
  herbicidal effect rating, SAGPY: 5.0
[6]; Rate 0.0320 kg/ha
  herbicidal effect rating, ECHORC: 2.0
[6]; Rate 0.0620 kg/ha
  herbicidal effect rating, ECHORC: 6.0
[6]; Rate 0.1250 kg/ha
  herbicidal effect rating, ECHORC: 6.0
Cyperus iria [7]; Rate 0.0320 kg/ha
  herbicidal effect rating, CYPIR: 4.0
Cyperus iria [7]; Rate 0.0620 kg/ha
  herbicidal effect rating, CYPIR: 7.0
Cyperus iria [7]; Rate 0.1250 kg/ha
  herbicidal effect rating, CYPIR: 9.0
[8]; Rate 0.0320 kg/ha
  herbicidal effect rating, CYPSE: 0.0
[8]; Rate 0.0620 kg/ha
  herbicidal effect rating, CYPSE: 0.0
[8]; Rate 0.1250 kg/ha
  herbicidal effect rating, CYPSE: 0.0
[9]; Rate 0.0320 kg/ha
  herbicidal effect rating, MOOVA: 7.0
[9]; Rate 0.0620 kg/ha
  herbicidal effect rating, MOOVA: 7.0
[9]; Rate 0.1250 kg/ha
  herbicidal effect rating, MOOVA: 9.0
Sagittaria pygmaea, L. [10]; Rate 0.0320 kg/ha
  herbicidal effect rating, SAGPY: 0.0
Sagittaria pygmaea, L. [10]; Rate 0.0620 kg/ha
  herbicidal effect rating, SAGPY: 0.0
Sagittaria pygmaea, L. [10]; Rate 0.1250 kg/ha
  herbicidal effect rating, SAGPY: 0.0
[11]; Rate 0.0320 kg/ha
  herbicidal effect rating ORYSAT: 6.5
[11]; Rate 0.0620 kg/ha
  herbicidal effect rating ORYSAT: 7.3
[11]; Rate 0.1250 kg/ha
  herbicidal effect rating ORYSAT: 8.8
[11]; Rate 0.2500 kg/ha
  herbicidal effect rating ORYSAT: 9.0
[11]; Rate 0.5000 kg/ha
  herbicidal effect rating ORYSAT: 9.0
[12]; Rate 0.0320 kg/ha
  herbicidal effect rating, ORYSAT (rice tolerance): 2.0
[12]; Rate 0.0620 kg/ha
  herbicidal effect rating, ORYSAT (rice tolerance): 3.0
[12]; Rate 0.1250 kg/ha
  herbicidal effect rating, ORYSAT (rice tolerance): 4.0
